# Test results published in patent publication US12540161B2, “Linkers” (BicycleTx Limited, priority 2020, dated 2026).
# Values joined by “and” are separate entries in the source; they are usually repeats but may differ in a detail not shown here. Equal values may be shown once.
# How the values were obtained:
# in vitro [1] = conditions: mouse, plasma
# in vitro [2] = conditions: human, plasma
# [3] = Plasma stability analysis, mouse plasma; conditions: plasma, BTCs
# in vitro [4] = conditions: rat, plasma
# in vitro [5] = conditions: cynomolgus monkey, plasma
# in vitro [6] = conditions: human, plasma, pH 7.4
# Experimental: Pooled frozen plasma was thawed in a water bath at 37° C. Plasma was centrifuged at 4000 rpm for 5 min and the clots were removed if any. The pH will be adjusted to 7.4±0.1 if required. 1 mM stock solution was prepared with DMSO. Propantheline (positive control) was prepared by making a 100 μM working solution by diluting 5 μL of the stock solution (10 mM) with 495 μL ultra pure water. 100 μM working solutions of test compounds were made up by diluting 10 μL of the stock solution (1 mM) with 90 μL DMSO. 98 μL of blank plasma was spiked with 2 μL of dosing solution (100 μM) to achieve 2 μM of the final concentration in duplicate and samples were incubated at 37° C. in a water bath. At each time point (0, 1, 2, 4, 6 and 24 hr), 400 μL of 200 ng/mL tolbutamide and labetalol in 100% MeOH was added and mixed thoroughly to precipitate proteins. Sample plates were centrifuged at 4,000 rpm for 15 min. An aliquot of supernatant (150 μL) was transferred from each well before submitting for LC-MS/MS analysis.
# The % remaining test compound after incubation in plasma was calculated using following equation: Remaining=100×(PAR at appointed incubation time/PAR at T0 time)
# where PAR is the peak area ratio of analyte versus internal standard (IS).
# The appointed incubation time points are T0 (0 hr), Tn (n=0, 1, 2, 4, 6, 24 hr). The half-life (T½) was calculated from a log linear plot of concentration versus time.
# When the % remaining value at the maximal incubation time, which was 24 hr in this study, was higher than 75%, it is considered to be within the acceptable experimental variation.
# HT1080 xenograft = test: In vivo efficacy study in the HT1080 xenograft model in BALB/c nude mice (Example 6); conditions: for Tumor volume, day 0 / Tumor volume, day 2 / Tumor volume, day 4 / Tumor volume, day 6 / Tumor volume, day 9 / T/C (%) / TGI (%) / Tumor volume, day 11: iv, qw; for Tumor volume, day 0: day 0 after the start of treatment; for Tumor volume, day 0 / Tumor volume, day 2 / Tumor volume, day 4 / Tumor volume, day 6 / Tumor volume, day 9 / Tumor volume, day 11: mean ± SEM; for T/C (%) / TGI (%) / Tumor volume, day 11: day 11
# Experimental: • Species: Mus Musculus • Strain: BALB/c nude • Age: 6-8 weeks • Sex: female • Body weight: 18-22 g • Number of animals: 35 mice plus spare • Animal supplier: Shanghai Lingchang Biotechnology Experimental Animal Co., LTD. Housing Condition • The mice were kept in individual ventilation cages at constant temperature and humidity with 5 animals in each cage. • Temperature: 20˜26° C. • Humidity 40-70%. • Cages: Made of polycarbonate. The size is 375 mm×215 mm×180 mm.
# The HT1080 cells were maintained in EMEM medium supplemented with 10% heat inactivated fetal bovine serum at 37° C. in an atmosphere of 5% CO2 in air. The tumor cells were routinely sub-cultured twice weekly. The cells growing in an exponential growth phase were harvested and counted for tumor inoculation.
# Each mouse was inoculated subcutaneously at the right flank with HT1080 tumor cells (5×10^6) in 0.2 ml of PBS for tumor development. Animals were randomized when the average tumor volume reached 320 mm^3 for efficacy study. The test article administration and the animal numbers in each group were shown in the experimental design table.
# All the procedures related to animal handling, care and the treatment in the study were performed according to the guidelines approved by the Institutional Animal Care and Use Committee (IACUC) of WuXi AppTec, following the guidance of the Association for Assessment and Accreditation of Laboratory Animal Care (AAALAC). At the time of routine monitoring, the animals were checked for any effects of tumor growth and treatments on normal behavior such as mobility, food and water consumption (by observation only), body weight gain/loss, eye/hair matting and any other abnormal effect as stated in the protocol. Death and observed clinical signs were recorded on the basis of the numbers of animals within each subset.
# The major endpoint was to see if the tumor growth could be delayed or mice could be cured. Tumor volume was measured three times weekly in two dimensions using a caliper, and the volume was expressed in mm^3 using the formula: V=0.5 a×b^2 where a and b are the long and short diameters of the tumor, respectively. The tumor size was then used for calculations of T/C value. The T/C value (in percent) is an indication of antitumor effectiveness; T and C are the mean volumes of the treated and control groups, respectively, on a given day.
# TGI was calculated for each group using the formula: TGI (%)=[1−(Ti−T0)/(Vi−Vo)]×100; Ti is the average tumor volume of a treatment group on a given day, T0 is the average tumor volume of the treatment group on the day of treatment start, Vi is the average tumor volume of the vehicle control group on the same day with Ti, and V0 is the average tumor volume of the vehicle group on the day of treatment start.
# Summary statistics, including mean and the standard error of the mean (SEM), were provided for the tumor volume of each group at each time point.
# Statistical analysis of difference in tumor volume among the groups was conducted on the data obtained at the best therapeutic time point after the final dose.
# A one-way ANOVA was performed to compare tumor volume among groups, and when a significant F-statistics (a ratio of treatment variance to the error variance) was obtained, comparisons between groups were carried out with Games-Howell test. A two-tailed T test was performed to compare tumor volume between two groups. All data were analyzed using GraphPad 5.0. P<0.05 was considered to be statistically significant.
# [7] = 7 animals of group 5 and 6 treated with BCY10984 45 μM, average starting tumor size 1291 mm^3
smiles,measurement,setting,value
"CC[C@H](C)[C@@H]([C@@H](CC(=O)N1CCC[C@H]1[C@H](OC)[C@@H](C)C(=O)N[C@H](C)[C@@H](O)c1ccccc1)OC)N(C)C(=O)[C@@H](NC(=O)[C@H](C(C)C)N(C)C(=O)OCc1ccc(NC(=O)[C@H](CCCNC(N)=O)NC(=O)[C@H](Cc2cccc3ccccc23)NC(=O)[C@H](CCC(=O)O)NC(=O)Cn2cc(CCC(=O)NCCC(=O)N(C)CC(=O)N(C)CC(=O)N(C)CC(=O)N(C)CC(=O)N(C)CC(=O)N(C)CC(=O)N(C)CC(=O)N(C)CC(=O)N(C)CC(=O)N(C)CC(=O)N[C@@H](C)C(=O)N[C@H]3CN(C)Cc4cc5cc(c4)CN(C)C[C@@H](C(N)=O)NC(=O)[C@H](C(C)(C)C)NC(=O)[C@H](CC(=O)O)NC(=O)[C@H](Cc4ccc(O)cc4)NC(=O)[C@H](Cc4ccccc4)NC(=O)[C@H](CC(=O)O)NC(=O)[C@H](CCC(=O)O)NC(=O)[C@H](CSC5)NC(=O)[C@@H](C)NC(=O)[C@H](Cc4cccc5ccccc45)NC(=O)[C@H](CCC(=O)O)NC(=O)[C@H](CC(N)=O)NC(=O)[C@@H](C)NC3=O)nn2)cc1)C(C)C [BCY10984, MMAE-PAB-(Cit-1Nal-Glu)-BCY3900]",fraction unbound,in vitro [1],0.002
same,fraction unbound,in vitro [2],0.031
same,half-life at 2 μM,"[3]; pH 7.4, Mouse plasma t1/2 (EDTA), EDTA anticoagulant",> 57.8 h
same,half-life at 2 μM,"[3]; pH 7.4, Mouse plasma t1/2 (Herparin), heparin anticoagulant",47.5 h
same,fraction unbound,"in vitro [4]; PPB (% Unbound), rat (Table 9)",0.04
same,fraction unbound,in vitro [4]; Plasma protein binding (% Unbound) Rat,0.035
same,fraction unbound,in vitro [5],0.092
same,half-life at 2 μM,in vitro [6],> 57.8 h
same,anti-tumor efficacy compared with BCY12951,HT1080 xenograft; 5 μM,comparable anti-tumor efficacy
same,anti-tumor activity,"HT1080 xenograft; 5 μM, 15 μM and 45 μM qw",dose-dependent anti-tumor activity
same,"Tumor volume, day 0",HT1080 xenograft; 5 μM,320 ± 48 mm^3
same,"Tumor volume, day 2",HT1080 xenograft; 5 μM,508 ± 49 mm^3
same,"Tumor volume, day 4",HT1080 xenograft; 5 μM,681 ± 64 mm^3
same,"Tumor volume, day 6",HT1080 xenograft; 5 μM,750 ± 50 mm^3
same,"Tumor volume, day 9",HT1080 xenograft; 5 μM,958 ± 53 mm^3
same,T/C (%),HT1080 xenograft; 5 μM,72.6%
same,TGI (%),HT1080 xenograft; 5 μM,33.6%
same,"Tumor volume, day 11",HT1080 xenograft; 5 μM,1257 mm^3 and 1257 ± 95 mm^3
same,anti-tumor efficacy compared with BCY12951 at the same molar dosage,HT1080 xenograft; 15 μM and 45 μM,more potent efficacy
same,"Tumor volume, day 0",HT1080 xenograft; 15 μM,321 ± 43 mm^3
same,"Tumor volume, day 2",HT1080 xenograft; 15 μM,519 ± 76 mm^3
same,"Tumor volume, day 4",HT1080 xenograft; 15 μM,428 ± 88 mm^3
same,"Tumor volume, day 6",HT1080 xenograft; 15 μM,378 ± 128 mm^3
same,"Tumor volume, day 9",HT1080 xenograft; 15 μM,304 ± 112 mm^3
same,T/C (%),HT1080 xenograft; 15 μM,16.6%
same,TGI (%),HT1080 xenograft; 15 μM,102.3%
same,"Tumor volume, day 11",HT1080 xenograft; 15 μM,288 mm^3 and 288 ± 126 mm^3
same,tumor eradication,HT1080 xenograft; 45 μM qw,eradicated the tumors completely on day 16
same,"Tumor volume, day 0",HT1080 xenograft; 45 μM,320 ± 32 mm^3
same,"Tumor volume, day 2",HT1080 xenograft; 45 μM,489 ± 68 mm^3
same,"Tumor volume, day 4",HT1080 xenograft; 45 μM,285 ± 90 mm^3
same,"Tumor volume, day 6",HT1080 xenograft; 45 μM,139 ± 46 mm^3
same,"Tumor volume, day 9",HT1080 xenograft; 45 μM,29 ± 10 mm^3
same,T/C (%),HT1080 xenograft; 45 μM,0.9%
same,TGI (%),HT1080 xenograft; 45 μM,121.6%
same,"Tumor volume, day 11",HT1080 xenograft; 45 μM,15 mm^3 and 15 ± 6 mm^3
same,tumor response after the first dosing,HT1080 xenograft; [7],sudden tumor regression
same,tumor response after the second dosing,HT1080 xenograft; [7],all tumors were eradicated completely
same,tumor growth (FIG. 17),HT1080 xenograft; mice from Group 5 and 6 dosed with 45 μM BCY10984,potent inhibition of tumor growth
